Results from patent US20220380374A1, “1,4-DIHYDROBENZO[D]PYRAZOLO[3,4-F][1,3]DIAZEPINE DERIVATIVES AND RELATED COMPOUNDS AS LRRK2, NUAK1 AND/OR TYK2 KINASE MODULATORS FOR THE TREATMENT OF E.G. AUTOIMMUNE DISEASE” (Origenis GMBH, priority 2019, published 2022).

Columns and labels:
[1] = molecular target: T1, wt human TYK2, catalytic site (Homo sapiens, UniProt P29597); experiment: HTRF KinEASE assay, TYK2; type: biochemical; settings: 1 μM ATP; read-out: IC50, inhibitory activity toward TYK2
T1 construct: 2 nM wt human TYK2, catalytic site (SignalChem/CAN); purchased SignalChem/CAN
T1 sequence (P29597 897-1176 limits assumed): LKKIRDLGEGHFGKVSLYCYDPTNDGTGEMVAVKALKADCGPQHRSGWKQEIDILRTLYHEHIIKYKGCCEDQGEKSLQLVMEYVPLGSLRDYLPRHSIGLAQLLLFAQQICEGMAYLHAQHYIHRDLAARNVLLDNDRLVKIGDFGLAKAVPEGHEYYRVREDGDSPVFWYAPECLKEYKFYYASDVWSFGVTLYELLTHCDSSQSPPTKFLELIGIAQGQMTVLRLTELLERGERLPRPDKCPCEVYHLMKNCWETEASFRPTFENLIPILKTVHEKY
Summary of the method: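 2 nM wt human TYK2 catalytic domain with 1 μM biotinylated TK substrate and 1 μM ATP in 1× kinase buffer was incubated ≥30 min at room temperature. Antibody and streptavidin-XL665 were added, and HTRF emission ratios were read after 60 min.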

[2] = molecular target: T2, wt human NUAK1, full length (Homo sapiens, UniProt O60285); experiment: TR-FRET LanthaScreen Eu Kinase Binding Assay, NUAK1; settings: 5 nM Kinase Tracer 236; read-out: IC50, inhibitory activity toward NUAK1
T2 construct: 8 nM wt human NUAK1, full length (ThermoFisher/USA); purchased ThermoFisher/USA
T2 sequence (O60285 1-661): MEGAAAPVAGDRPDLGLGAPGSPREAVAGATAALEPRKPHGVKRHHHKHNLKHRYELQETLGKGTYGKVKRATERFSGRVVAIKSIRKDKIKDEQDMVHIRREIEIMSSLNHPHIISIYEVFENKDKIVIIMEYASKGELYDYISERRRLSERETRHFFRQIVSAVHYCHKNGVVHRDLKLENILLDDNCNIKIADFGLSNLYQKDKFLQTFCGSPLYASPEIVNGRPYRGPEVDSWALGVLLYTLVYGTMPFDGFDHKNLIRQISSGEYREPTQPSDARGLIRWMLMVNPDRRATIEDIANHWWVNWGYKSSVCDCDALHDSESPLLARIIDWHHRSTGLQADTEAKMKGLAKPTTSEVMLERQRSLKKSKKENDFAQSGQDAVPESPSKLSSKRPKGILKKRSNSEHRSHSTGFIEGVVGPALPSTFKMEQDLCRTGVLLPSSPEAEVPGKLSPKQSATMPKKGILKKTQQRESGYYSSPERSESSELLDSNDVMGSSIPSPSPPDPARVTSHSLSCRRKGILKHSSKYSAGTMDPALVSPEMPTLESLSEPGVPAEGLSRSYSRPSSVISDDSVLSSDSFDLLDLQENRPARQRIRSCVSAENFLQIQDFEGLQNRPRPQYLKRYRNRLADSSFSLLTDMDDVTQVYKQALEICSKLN
Summary of the method: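 TR-FRET tracer-displacement binding with 8 nM full-length wild-type human NUAK1, 2 nM Eu-anti-His antibody and 5 nM Kinase Tracer 236 in 1× Kinase Buffer A (final). Compound, kinase/antibody and tracer incubated 1 h at room temperature; emission ratios analysed per kit protocol.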

IC50 [1] | IC50 [2] | Compound
10 to 100 nM | 10 to 100 nM | Cc1n[nH]c2c1NC(c1c(F)cccc1F)=Nc1ccccc1-2 [Compound 76, 5-(2,6-difluorophenyl)-3-methyl-1,4-dihydrobenzo[d]pyrazolo[3,4-f][1,3]diazepine]
100 to 1000 nM | 100 to 1000 nM | Cc1ccc2c(c1)-c1[nH]ncc1NC(c1c(F)cccc1I)=N2 [Compound 163, 5-(2-fluoro-6-iodophenyl)-9-methyl-1,4-dihydrobenzo[d]pyrazolo[3,4-f][1,3]diazepine]
< 10 nM | < 10 nM | Fc1cc2c(cc1-c1ccnnc1)N=C(c1c(F)cccc1F)Nc1c[nH]nc1-2 [Compound 226, 5-(2,6-difluorophenyl)-9-fluoro-8-(pyridazin-4-yl)-2,4-dihydrobenzo[d]pyrazolo[3,4-f][1,3]diazepine]
10 to 100 nM | 10 to 100 nM | COC(=O)Nc1ccc2c(c1)N=C(c1c(F)cccc1F)Nc1c[nH]nc1-2 [Compound 164, methyl(5-(2,6-difluorophenyl)-2,4-dihydrobenzo[d]pyrazolo[3,4-f][1,3]diazepin-8-yl)carbamate]
10 to 100 nM | 100 to 1000 nM | Fc1cc2c(cc1OC1CCOCC1)N=C(c1c(F)cccc1F)Nc1c[nH]nc1-2 [Compound 220, 5-(2,6-difluorophenyl)-9-fluoro-8-((tetrahydro-2H-pyran-4-yl)oxy)-2,4-dihydrobenzo[d]pyrazolo[3,4-f][1,3]diazepine]
< 10 nM | 10 to 100 nM | O=C(NC1CCOCC1)c1ccc2c(c1)N=C(c1c(F)cccc1F)Nc1cn[nH]c1-2 [Compound 95, 5-(2,6-difluorophenyl)-N-(tetrahydro-2H-pyran-4-yl)-1,4-dihydrobenzo[d]pyrazolo[3,4-f][1,3]diazepine-8-carboxamide]
100 to 1000 nM | 100 to 1000 nM | Cc1ccc2c(c1)-c1[nH]ncc1N=C(c1c(C)cccc1F)N2 [Compound 172, 5-(2-fluoro-6-methylphenyl)-9-methyl-1,6-dihydrobenzo[d]pyrazolo[3,4-f][1,3]diazepine]
100 to 1000 nM | 100 to 1000 nM | O=C(c1ccc2c(c1)N=C(c1c(F)cccc1Cl)Nc1cn[nH]c1-2)N1CCOCC1 [Compound 78, (5-(2-chloro-6-fluorophenyl)-1,4-dihydrobenzo[d]pyrazolo[3,4-f][1,3]diazepin-8-yl)(morpholino)methanone]
< 10 nM | 10 to 100 nM | Fc1cc2c(cc1-c1ccnnc1)N=C(c1c(F)cccc1Cl)Nc1c[nH]nc1-2 [Compound 230, 5-(2-chloro-6-fluorophenyl)-9-fluoro-8-(pyridazin-4-yl)-2,4-dihydrobenzo[d]pyrazolo[3,4-f][1,3]diazepine]
10 to 100 nM | 10 to 100 nM | Fc1cccc(F)c1C1=Nc2cn[nH]c2-c2cc3c(cc2N1)OCO3 [Compound 210, 5-(2,6-difluorophenyl)-1,6-dihydro-[1,3]dioxolo[4′,5′:4,5]benzo[1,2-d]pyrazolo[3,4-f][1,3]diazepine]
100 to 1000 nM | 10 to 100 nM | Fc1cccc(F)c1C1=Nc2ncccc2-c2[nH]ncc2N1 [Compound 11, 5-(2,6-difluorophenyl)-1,4-dihydropyrazolo[4,3-d]pyrido[3,2-f][1,3]diazepine]
10 to 100 nM | 10 to 100 nM | Fc1cccc(Cl)c1C1=Nc2ccccc2-c2[nH]ncc2N1 [Compound 27, 5-(2-chloro-6-fluorophenyl)-1,4-dihydrobenzo[d]pyrazolo[3,4-f][1,3]diazepine]
10 to 100 nM | 10 to 100 nM | Fc1cccc(F)c1C1=Nc2cc(OC3CCOCC3)ccc2-c2[nH]ncc2N1 [Compound 99, 5-(2,6-difluorophenyl)-8-((tetrahydro-2H-pyran-4-yl)oxy)-1,4-dihydrobenzo[d]pyrazolo[3,4-f][1,3]diazepine]
10 to 100 nM | 10 to 100 nM | Fc1cccc(F)c1C1=Nc2cn[nH]c2-c2cn(-c3ccccc3)nc2N1 [Compound 68, 5-(2,6-difluorophenyl)-8-phenyl-6,8-dihydro-1H-dipyrazolo[3,4-d:3 ′,4′-f][1,3]diazepine]
100 to 1000 nM | 100 to 1000 nM | COc1cccc(F)c1C1=Nc2cn[nH]c2-c2ccccc2N1 [Compound 114, 5-(2-fluoro-6-methoxyphenyl)-1,6-dihydrobenzo[d]pyrazolo[3,4-f][1,3]diazepine]
< 10 nM | 100 to 1000 nM | Fc1cc2c(cc1OC1CCOCC1)N=C(c1c(F)cccc1Cl)Nc1c[nH]nc1-2 [Compound 221, 5-(2-chloro-6-fluorophenyl)-9-fluoro-8-((tetrahydro-2H-pyran-4-yl)oxy)-2,4-dihydrobenzo[d]pyrazolo[3,4-f][1,3]diazepine]
10 to 100 nM | < 10 nM | Fc1ccc(-c2ccc3c(c2)N=C(c2c(F)cccc2F)Nc2c[nH]nc2-3)cc1 [Compound 237, 5-(2,6-difluorophenyl)-8-(4-fluorophenyl)-2,4-dihydrobenzo[d]pyrazolo[3,4-f][1,3]diazepine]
10 to 100 nM | 100 to 1000 nM | O=C(O)c1cc2c(cc1Cl)-c1[nH]ncc1N=C(c1c(F)cccc1F)N2 [Compound 198, 9-chloro-5-(2,6-difluorophenyl)-1,6-dihydrobenzo[d]pyrazolo[3,4-f][1,3]diazepine-8-carboxylic acid]
10 to 100 nM | 100 to 1000 nM | CN1CCN(c2ncc3c(n2)N=C(c2c(F)cccc2F)Nc2c[nH]nc2-3)CC1 [Compound 219]
100 to 1000 nM | 100 to 1000 nM | COc1ccc2c(c1)-c1[nH]ncc1N=C(c1c(F)cccc1Cl)N2 [Compound 39, 5-(2-chloro-6-fluorophenyl)-9-methoxy-1,6-dihydrobenzo[d]pyrazolo[3,4-f][1,3]diazepine]
100 to 1000 nM | 10 to 100 nM | Fc1cccc(Cl)c1C1=Nc2cn[nH]c2-c2cc(OC(F)F)ccc2N1 [Compound 43, 5-(2-chloro-6-fluorophenyl)-9-(difluoromethoxy)-1,6-dihydrobenzo[d]pyrazolo[3,4-f][1,3]diazepine]
100 to 1000 nM | 100 to 1000 nM | FC(F)Oc1ccc2c(c1)-c1[nH]ncc1N=C(c1c(Cl)cccc1Cl)N2 [Compound 90, 5-(2,6-dichlorophenyl)-9-(difluoromethoxy)-1,6-dihydrobenzo[d]pyrazolo[3,4-f][1,3]diazepine]
10 to 100 nM | 10 to 100 nM | Fc1ccccc1-c1ccc2c(c1)N=C(c1c(F)cccc1F)Nc1c[nH]nc1-2 [Compound 233, 5-(2,6-difluorophenyl)-8-(2-fluorophenyl)-2,4-dihydrobenzo[d]pyrazolo[3,4-f][1,3]diazepine]
10 to 100 nM | 10 to 100 nM | CCNC(=O)c1cc2c(cc1F)-c1n[nH]cc1N=C(c1c(F)cccc1F)N2 [Compound 211, 5-(2,6-difluorophenyl)-N-ethyl-9-fluoro-2,6-dihydrobenzo[d]pyrazolo[3,4-f][1,3]diazepine-8-carboxamide]
< 10 nM | 100 to 1000 nM | Fc1ccccc1-c1ccc2c(c1)N=C(c1c(Cl)cccc1Cl)Nc1c[nH]nc1-2 [Compound 236, 5-(2,6-dichlorophenyl)-8-(2-fluorophenyl)-2,4-dihydrobenzo[d]pyrazolo[3,4-f][1,3]diazepine]
100 to 1000 nM | 10 to 100 nM | NC(=O)c1ccc2c(c1)-c1[nH]ncc1N=C(c1c(F)cccc1Cl)N2 [Compound 94, 5-(2-chloro-6-fluorophenyl)-1,6-dihydrobenzo[d]pyrazolo[3,4-f][1,3]diazepine-9-carboxamide]
10 to 100 nM | 10 to 100 nM | Fc1cccc(F)c1C1=Nc2c(Cl)n[nH]c2-c2cc(Cl)ncc2N1 [Compound 171, 3,9-dichloro-5-(2,6-difluorophenyl)-1,6-dihydropyrazolo[4,3-d]pyrido[4,3-f][1,3]diazepine]

Compound | IC50 [1] | IC50 [2]
Fc1cc2c(cc1OC1CCOCC1)N=C(c1c(Cl)cccc1Cl)Nc1c[nH]nc1-2 [Compound 222, 5-(2,6-dichlorophenyl)-9-fluoro-8-((tetrahydro-2H-pyran-4-yl)oxy)-2,4-dihydrobenzo[d]pyrazolo[3,4-f][1,3]diazepine] | < 10 nM | 100 to 1000 nM
